In USRE40594E1, “Inhibitors of the bitter taste response” (Mount Sinai School of Medicine of New York University, priority 1998, dated 2008):
Entries after “also recorded” stand apart in the source; their conditions may differ.

Experiments:
[1] = test system: bovine taste receptor cell membranes (taste receptors) with transducin; assay: G protein activation assay (trypsin sensitivity): activation of transducin by bitter tastant plus taste membranes; assay type: biochemical, Bovine (Bos primigenius)
Source text: Taste receptor is contacted with gustducin or transducin and tastant, in the presence or absence of test inhibitor, under conditions suitable for activation of the G-protein present. […] In specific non-limiting embodiments, a subunits of transducin or gustducin may be combined with βγ subunits prior to this step, as set forth above. To the reaction mixture comprising taste receptors and gustducin or transducin, test inhibitor and/or bitter tastant may be added, and the resulting solution incubated to permit interaction of the elements.
In preferred embodiments, activation is assessed by a trypsin digestion assay. […] In a specific, non-limiting example, to perform a trypsin digestion assay according to the invention, TPCK-treated trypsin (1:25 trypsin to total protein in the reaction mixture) may be added, and the digestion may be performed at room temperature for about 15 minutes and stopped by adding soybean trypsin inhibitor (6:1 mol/mol inhibitor to trypsin). […] The separated polypeptides may then be transferred by electro-blotter to a poly (vinylidene difluoride) membrane blocked by the addition of 5% BLOTTO [50 mM Tris-HCI, pH 7.4/100 mM NaCl/5% nonfat dry milk], (30 min). G-protein peptides may then be visualized by binding of antibody directed toward transducin or gustducin, followed, for example, by binding of a detectably labeled secondary antibody. If a horseradish peroxidase-labeled secondary antibody is used, binding may be visualized by developing with bicinchoninic acid staining reagents and exposure to x-ray film.
G Protein Activation Assays. Bovine (Bos primigenius) tongues were collected fresh from a local slaughterhouse and transported on ice to the laboratory. Circumvallate papillae were hand dissected, frozen in liquid nitrogen, and stored at −80° C. until use. […] The pelleted membranes were rinsed twice, resuspended in homogenization buffer lacking protease inhibitors, and further homogenized by 20 passages through a 25-gauge needle. Aliquots were either flash frozen or stored on ice until use. […] The separated polypeptides were transferred by electro-blotter to a poly (vinylidene difluoride) membrane, which was blocked by the addition of 5% BLOTTO [50 mM Tris-HCI, pH 7.4/100 mM NaCl/5% nonfat dry milk], (30 min), then transducin peptides were visualized by binding of transducin antiserum and horseradish peroxidase-labeled goat anti-rabbit secondary antibody, followed by developing with bicinchoninic acid staining reagents from Bio-Rad and exposure to x-ray film.
Chemicals. All bitter tastant and buffer chemicals were of the highest purity available and were purchased either from Sigma or Boehringer Mannheim, unless otherwise noted. […] The rabbit polyclonal antitransducin antibody was a kind gift of Mel Simon and John Watson (California Institute of Technology, Pasadena, Calif.).

rhodopsin = target: T1, rhodopsin (Bos taurus, UniProt P02699); assay: Rhodopsin-mediated activation of transducin (trypsin sensitivity assay, receptor specificity control); assay type: biochemical, bovine; conditions: 0.001 mM rhodopsin; AMP 0.25, 0.5, 1.25, 2.5, 5.0 mM; FIG. 1D
T1 construct: Rhodopsin was purified in the light as 6 M urea-washed bovine rod outer segments; from tissue; host or cells: bovine rod outer segments (6 M urea-washed)
T1 sequence (P02699 whole entry): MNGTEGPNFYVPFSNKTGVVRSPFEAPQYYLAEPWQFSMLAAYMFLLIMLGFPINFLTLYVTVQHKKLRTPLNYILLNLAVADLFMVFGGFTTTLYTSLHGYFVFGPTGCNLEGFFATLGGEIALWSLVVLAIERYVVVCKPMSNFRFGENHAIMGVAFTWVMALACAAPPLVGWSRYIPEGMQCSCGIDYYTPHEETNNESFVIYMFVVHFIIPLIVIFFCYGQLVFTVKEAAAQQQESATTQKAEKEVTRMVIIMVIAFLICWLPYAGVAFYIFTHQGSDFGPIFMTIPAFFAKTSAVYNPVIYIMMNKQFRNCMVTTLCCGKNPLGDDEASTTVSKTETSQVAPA
Protocol: G Protein Activation Assays. Bovine (Bos primigenius) tongues were collected fresh from a local slaughterhouse and transported on ice to the laboratory. Circumvallate papillae were hand dissected, frozen in liquid nitrogen, and stored at −80° C. until use. The collected taste tissues were homogenized, particulates removed by centrifugation, and enriched taste cell membranes collected as described (Ming, D., et al., 1998, Proc. Natl. Acad. Sci. U.S.A. 95:8933-8938). The pelleted membranes were rinsed twice, resuspended in homogenization buffer lacking protease inhibitors, and further homogenized by 20 passages through a 25-gauge needle. Aliquots were either flash frozen or stored on ice until use. The concentration of protein in the membrane preparations was determined by the Peterson modification of the micro-Lowry method (Peterson, G. L., 1977, Anal. Biochem. 83:346-356). Activation of transducin was based on the published trypsin sensitivity procedure (Ming, D., et al., 1998, Proc. Natl. Acad. Sci. U.S.A. 95:8933-8938, Neer, E. J., et al., 1994, Methods Enzymol. 237:226-239). After the trypsin digestion, samples were diluted with Laemmli buffer (Laemmli. U. K., 1970, Nature (London) 227:680-685) and separated by SDS/PAGE by using a 4-20% gel and Tris-glycine buffer. […]

Nc1ncnc2c1ncn2[C@@H]1O[C@H](COP(=O)(O)O)[C@@H](O)[C@H]1O [AMP, adenosine 5′ monophosphate]
inhibition of activation of transducin by QUI plus bovine taste membranes ([1]; 1.0 mM QUI, AMP 0.01-2.5 mM, FIG. 1B): inhibit; also recorded: inhibited in a dose-dependent fashion | inhibition of taste membrane-dependent activation of transducin by atropine hydrochloride ([1]; AMP 2.5 mM, ATR 5.0 mM, FIG. 1C): inhibits; also recorded: inhibitory effect | inhibition of taste membrane-dependent activation of transducin by DEN ([1]; AMP 2.5 mM, DEN 5.0 mM, FIG. 1C): inhibits; also recorded: inhibitory effect | inhibition of taste membrane-dependent activation of transducin by nicotine hemisulfate ([1]; AMP 2.5 mM, NIC 5.0 mM, FIG. 1C): inhibits; also recorded: inhibitory effect | inhibition of taste membrane-dependent activation of transducin by QUI ([1]; AMP 2.5 mM, QUI 1.0 mM, FIG. 1C): inhibits; also recorded: inhibitory effect | inhibition of taste membrane-dependent activation of transducin by strychnine hydrochloride ([1]; AMP 2.5 mM, STR 5.0 mM, FIG. 1C): inhibits; also recorded: inhibitory effect | inhibition of in vitro activation of transducin (G-protein) by taste membranes plus bitter compounds, summary statement ([1]; DEN, QUI and other bitter compounds, concentrations not given): inhibits | inhibition of taste membrane activation of transducin by caffeic acid ([1]; concentrations not given): inhibitory effect | inhibition of taste membrane activation of transducin by naringin ([1]; concentrations not given): inhibitory effect | inhibition of taste membrane activation of transducin by quinacrine ([1]; concentrations not given): inhibitory effect | inhibition of taste membrane activation of transducin by sparteine ([1]; concentrations not given): inhibitory effect | inhibition of activation of transducin by DEN plus bovine taste receptor membranes ([1]; inhibitor 0.25, 0.5, 1.25, 2.5, 5.0 mM, DEN 5.0 mM, shift from 32-kDa to 23-kDa fragments, FIG. 1A/1E): inhibit; also recorded: inhibited in a dose-dependent fashion | inhibition of activation of transducin by rhodopsin (rhodopsin): does not inhibit; also recorded: did not inhibit
